Experimental findings from US20200407398A1, “Short Proline-Rich Lipopeptide Potentiates Minocycline and Rifampicin Against Multidrug-and Extensively Drug-Resistant Pseudomonas Aeruginosa” (priority 2018, published 2020) are described below.

Peptide text beside a SMILES is read from it. * marks the point of attachment. Palmitoyl = CCCCCCCCCCCCCCCC(=O)*

The subject of one data set is Gram-positive bacteria. In words: Microbroth dilution MIC, range over panel. The note with it: against Gram-positive bacteria of the panel. It counts as cell-based. Here is the method:
The synthesized SPRLPs were evaluated for their antibacterial potency against a panel of Gram-positive and Gram-negative bacteria (Tables 2 & 3). Some of the included pathogens were collected from patients visiting or admitted to participating Canadian hospitals through the CAN-ICU (27) and CANWARD (28) national surveillance studies. Antibacterial activity was assessed using minimum inhibitory concentration (MIC) against various clinical pathogens.
(§1) Microbroth dilution susceptibility test following the Clinical and Laboratory Standards Institute (CLSI) guidelines (32) was performed to assess the in vitro antibacterial activity of SPRLPs. Overnight grown bacterial cultures were diluted in saline to achieve a 0.5 McFarland turbidity, followed by 1:50 dilution in Mueller-Hinton broth (MHB) for inoculation to a final concentration of 5×10^5 colony forming units/mL. The assay was done on a 96-well plate to which the agents of interest were 2-fold serially diluted in MHB and incubated with equal volumes of inoculum at 37° C. for 18 hours. MIC was determined as the lowest concentration to inhibit visible bacterial growth in form of turbidity, which was confirmed using EMax Plus microplate reader (Molecular Devices, USA) at a wavelength of 590 nm. The well containing MHB broth with or without bacterial cells was used as positive or negative control, respectively.

For data set [1], the system named is S. maltophilia CAN-ICU 62584. The format is cell-based. In short, it runs like this:
(§2)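 Read-out is visible turbidity, confirmed at 590 nm, with MIC taken as the lowest inhibitory concentration. Bacteria at 5×10^5 CFU/mL were exposed to 2-fold dilutions in Mueller-Hinton broth for 18 hours at 37° C., per CLSI guidelines.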

The test system of data set [2] is methicillin-resistant S. epidermidis CAN-ICU 61589 (ceftazidime-resistant). It counts as cell-based. The note with it: methicillin-resistant CAN-ICU 61589 (ceftazidime-resistant). In short, it runs like this: as §2
The test system of the next data set is S. aureus ATCC 29213. The format is cell-based. A digest of the protocol: as §2
Data set [3] relates to P. aeruginosa CANWARD-2011 96846 (gentamicin-, tobramycin-resistant). It counts as cell-based. A digest of the protocol:
as §2

Data set [4] relates to methicillin-susceptible Staphylococcus epidermidis CANWARD-2008 81388. It counts as cell-based. The note with it: methicillin-susceptible CANWARD-2008 81388. In short, it runs like this: as §2
Data set [5] relates to E. coli CAN-ICU 61714 (gentamicin-resistant). It counts as cell-based. A digest of the protocol: as §2
The subject of a further data set is E. faecium ATCC 27270. The format is cell-based. In short, it runs like this: as §2
The next data set concerns K. pneumoniae ATCC 13883. The format is cell-based. A digest of the protocol:
as §2

Data set [6] has as its system P. aeruginosa wild-type PAO1. It counts as cell-based. A digest of the protocol: as §2
Data set [7] relates to methicillin-resistant S. aureus ATCC 33592. The format is cell-based. A digest of the protocol:
as §2

Data set [8] relates to A. baumannii CAN-ICU 63169. It counts as cell-based. In short, it runs like this: as §2
For data set [9], the system named is P. aeruginosa CAN-ICU 62308 (gentamicin-resistant). It counts as cell-based. A digest of the protocol:
as §2

Data set [10] has as its system E. coli CAN-ICU 63074 (amikacin-intermediate resistant). The format is cell-based. In short, it runs like this: as §2
Data set [11] deals with E. coli CANWARD-2011 97615 (gentamicin-, tobramycin-, ciprofloxacin-resistant) aac(3′)iia. It counts as cell-based. In short, it runs like this:
as §2

The subject of the next data set is E. coli ATCC 25922. The format is cell-based. In short, it runs like this:
as §2

For another data set, the system named is E. faecalis ATCC 29212. It counts as cell-based. In short, it runs like this:
as §2

The test system of a further data set is P. aeruginosa ATCC 27853. The format is cell-based. A digest of the protocol: as §2
The next data set relates to pig erythrocytes. The format is cell-based. A digest of the protocol:
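Washed pig erythrocytes in PBS were mixed with 2-fold serial dilutions of peptide and incubated for 1 h at 37° C. Released hemoglobin in the supernatant was read at 570 nm, with PBS and 0.1% Triton X-100 as controls. MHC was the minimum concentration giving 5% hemolysis.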

Data set [12] deals with P. aeruginosa 264-104354 (MDR/XDR). The experiment in a line: microbe, parasite or virus in culture. To be noted: Pseudomonas aeruginosa, read-out: MIC (agent alone). Here is the method:
(§3) We evaluated the activity of SPRLPs in combination with fifteen clinically-used antibiotics against P. aeruginosa. Antibiotics tested included fluoroquinolones (moxifloxacin, ciprofloxacin and levofloxacin), aminoglycosides (gentamicin, tobramycin and amikacin), cephalosporins (ceftazidime and cefotaxime), carbapenems (meropenem and doripenem), aztreonam, rifampicin, minocycline, colistin and fosfomycin. The SPRLPs were screened initially at a fixed concentration of 8 μg/mL (5 μM) in combination with antibiotics against wild-type P. aeruginosa PAO1. We assessed potentiation by at least a four-fold absolute MIC reduction of the antibiotic, after which synergism was further validated by a conventional checkerboard assay. A fractional inhibitory concentration (FIC) index of ≤0.5, 0.5<x≤4 or >4 was interpreted as synergistic, indifferent or antagonistic interaction, respectively (31). FIC index was obtained by adding the FIC values of the antibiotic and the SPRLP adjuvant. FIC of antibiotics was calculated by dividing the MIC of the antibiotic in the presence of the adjuvant by the MIC of the antibiotic alone. Similarly, the FIC of adjuvant was calculated via dividing the MIC of the adjuvant in the presence of the antibiotic by the MIC of the adjuvant alone.
(§4) Isolates used in this study were either obtained from the American Type Culture Collection (ATCC), the Canadian National Intensive Care Unit (CAN-ICU) surveillance study (27) or the Canadian Ward Surveillance (CANWARD) study (28). Clinical isolates belonging to the CAN-ICU and CANWARD studies were recovered from patients suffering a presumed infectious disease entering or admitted in a participating medical center across Canada during the time of study. MDR P. aeruginosa strains in this study refer to those that are resistant to aminoglycosides, fluoroquinolones, cephalosporins, and carbapenems while XDR strains are those that are resistant to aminoglycosides, fluoroquinolones, cephalosporins, carbapenems, aztreonam and penicillin+β-lactamase inhibitor combination (39, 40).
as §1
(§5) The assay was performed on a 96-well plate, to which the agents of interest was 2-fold serially diluted in working MHB. Prior to serial dilution, SPRLP was added to the working MHB media so that a fixed final concentration of 8 μg/mL (5 μM) SPRLP per well was achieved. To ensure that the assay was working, the MIC determination test of the studied antibiotic (without SPRLP) was included on the same plate. Similar MIC results between the assay comparator and an independent MIC determination test (on a different plate) ensured validity of the synergy test. Overnight grown bacterial cultures were diluted in saline to 0.5 McFarland turbidity, followed by 1:50 dilution in MHB (without SPRLP) and inoculation into each well to a final concentration of approximately 5×10^5 colony forming units/mL. Wells containing only MHB (without SPRLP) with or without bacterial cells were used as positive or negative control, respectively.

The subject of data set [13] is P. aeruginosa 262-101856 (MDR/XDR). In words: microbe, parasite or virus in culture. To be noted: Pseudomonas aeruginosa, read-out: MIC (agent alone). Here is the method:
as §3, §4, §1, §5

Data set [14] has as its system P. aeruginosa 101885 (MDR/XDR). The experiment in a line: microbe, parasite or virus in culture. To be noted: Pseudomonas aeruginosa, read-out: MIC (agent alone). As to the method: as §3, §4, §1, §5
In data set [15] the test system is P. aeruginosa 260-97103 (MDR/XDR). The experiment in a line: microbe, parasite or virus in culture. The note with it: Pseudomonas aeruginosa, read-out: MIC (agent alone). Here is the method: as §3, §4, §1, §5
Data set [16] concerns P. aeruginosa 259-96918 (MDR/XDR). The experiment in a line: microbe, parasite or virus in culture. The note with it: Pseudomonas aeruginosa, read-out: MIC (agent alone). Here is the method:
as §3, §4, §1, §5

In data set [17] the test system is P. aeruginosa 100036 (MDR/XDR). In words: microbe, parasite or virus in culture. To be noted: Pseudomonas aeruginosa, read-out: MIC (agent alone). As to the method: as §3, §4, §1, §5
In data set [18] the test system is P. aeruginosa 91433 (colistin-resistant, MDR/XDR). In words: microbe, parasite or virus in culture. To be noted: Pseudomonas aeruginosa, read-out: MIC (agent alone). Here is the method:
as §3, §4, §1, §5

Data set [19] has as its system P. aeruginosa 101243 (colistin-resistant, MDR/XDR). The experiment in a line: microbe, parasite or virus in culture. The note with it: antibiotic or lipopeptide alone; for MIC: Pseudomonas aeruginosa, read-out: MIC (agent alone), P. aeruginosa 101243 (colistin-resistant). Here is the method: as §3, §4, §1, §5
Data set [20] has as its system P. aeruginosa PAO1 (wild-type). In words: microbe, parasite or virus in culture. To be noted: Pseudomonas aeruginosa, PAO1, read-out: MIC (agent alone). Here is the method:
as §3, §1
as §5, with “respectively. The plate was then incubated at 37° C. for 18 hours and examined for visible turbidity, to which was confirmed using EMax Plus microplate reader (Molecular Devices, USA) at a wavelength of 590 nm. A 4-fold or more MIC reduction of antibiotic in the presence of 8 μg/mL (5 μM) SPRLP denoted a positive synergy result and was further validated by a checkerboard assay.” for “respectively.”
The assay was done on a 96-well plate as previously described (40, 41). The agent of interest was 2-fold serially diluted along the x-axis, while the adjuvant was 2-fold serially diluted along the y-axis to create a matrix in which each well consist of a combination of both at different concentrations.

Consider `CCCCCCCCCCCCCCCC(=O)N1CCC[C@H]1C(=O)N[C@@H](CCCNC(=N)N)C(=O)N1CCC[C@H]1C(=O)NCC(=O)N1CCC[C@H]1C(=O)N[C@@H](CCCNC(=N)N)C(=O)N1CCC[C@H]1C(N)=O` [Compound C16-PGP, CH3(CH2)14CO-PRPGPRP-NH2] (Palmitoyl-PRPGPRP-NH2), for which the MIC range in the data set with Gram-positive bacteria lay within 8 to 32 µg/mL. Further, the MIC in data set [1] amounted to 128 µg/mL; in [2], 16 µg/mL; in the data set on S. aureus ATCC 29213 it was 32 µg/mL; in [3], 128 µg/mL; in data set [4], 8 µg/mL; in data set [5] it was 32 µg/mL. The MIC turned out to be 16 µg/mL with E. faecium ATCC 27270; 64 µg/mL in the data set on K. pneumoniae ATCC 13883; 64 µg/mL in data set [6]; 32 µg/mL in [7]; 32 µg/mL in [8]; 128 µg/mL in [9]. The MIC turned out to be 32 µg/mL in data set [10]; 32 µg/mL in data set [11]; 32 µg/mL in the data set on E. coli ATCC 25922; 16 µg/mL with E. faecalis ATCC 29212; 128 µg/mL with P. aeruginosa ATCC 27853. Further, the “MHC (minimum concentration that resulted in 5% red blood cell hemolysis)” value with pig erythrocytes was 16 µg/mL.

For `CCCCCCCCCCCCCCCC(=O)N1CCC[C@H]1C(=O)N[C@@H](CCCNC(=N)N)C(=O)N1CCC[C@H]1C(=O)N[C@@H](Cc1c[nH]c2ccccc12)C(=O)N1CCC[C@H]1C(=O)N[C@@H](CCCNC(=N)N)C(=O)N1CCC[C@H]1C(N)=O` [Compound C16-PWP, CH3(CH2)14CO-PRPWPRP-NH2] (Palmitoyl-PRPWPRP-NH2), the MIC range in the data set with Gram-positive bacteria fell in the range of 4 to 8 µg/mL. The MIC in data set [1] is 64 µg/mL; in data set [2], 8 µg/mL; with S. aureus ATCC 29213, 8 µg/mL; in [3] it was 64 µg/mL; in data set [4], 4 µg/mL; in [5], 32 µg/mL. Also, the MIC with E. faecium ATCC 27270 worked out at 8 µg/mL; in the data set on K. pneumoniae ATCC 13883, 64 µg/mL; in data set [6] it was 32 µg/mL; in data set [7] it was 8 µg/mL; in data set [8], 64 µg/mL; in data set [9], 64 µg/mL. The MIC stood at 16 µg/mL in [10]; 64 µg/mL in data set [11]; 32 µg/mL in the data set on E. coli ATCC 25922; 8 µg/mL in the data set on E. faecalis ATCC 29212; 64 µg/mL in the data set with P. aeruginosa ATCC 27853. For the same compound, the “MHC (minimum concentration that resulted in 5% red blood cell hemolysis)” value with pig erythrocytes came to 16 µg/mL.

In the case of `CN(C)c1ccc(O)c2c1C[C@H]1C[C@H]3[C@H](N(C)C)C(O)=C(C(N)=O)C(=O)[C@@]3(O)C(O)=C1C2=O` [minocycline], the MIC in [12] came to 32 µg/mL; in data set [13], 64 µg/mL; in data set [14], 16 µg/mL; in [15], 16 µg/mL; in data set [16] it was 16 µg/mL; in data set [17], 16 µg/mL. For the same compound, the MIC in [18] stood at 32 µg/mL; in data set [19] it was 2 µg/mL; in data set [20], 8 µg/mL. Also, the “MIC (agent alone)” value in [19] (P. aeruginosa 101243 (colistin-resistant)) came to 4 µg/mL.

As for `CO[C@H]1/C=C/O[C@@]2(C)Oc3c(C)c(O)c4c(O)c(c(/C=N/N5CCN(C)CC5)c(O)c4c3C2=O)NC(=O)/C(C)=C\C=C\[C@H](C)[C@H](O)[C@@H](C)[C@@H](O)[C@@H](C)[C@H](OC(C)=O)[C@@H]1C` [rifampicin], the MIC in [12] came to 8 µg/mL; in data set [13], 512 µg/mL; in [14], 16 µg/mL; in data set [15], 16 µg/mL; in data set [16], 16 µg/mL; in [17] it was 16 µg/mL. Besides, the results for the MIC in data set [18], in [19] and in data set [20] were 16 µg/mL, 4 µg/mL and 8 µg/mL, respectively.
